Data as given in ChEMBL document CHEMBL1146213, “Biscembranoids and their probable biogenetic precursor from the Hainan soft coral Sarcophyton tortuosum” (J Nat Prod, 2007).
Activity calls are given as the source filed them.

Columns and labels:
A549 = assay: Antitumor activity against A549 cells; type: functional, cell-based; conditions: Homo sapiens
P388 = assay: Antitumor activity against P388 cells; type: functional, cell-based; conditions: Mus musculus
Cladosporium cucumerinum = assay: Antifungal activity against Cladosporium cucumerinum; type: functional, organism-based

Measured: Activity

COC(=O)[C@@]12CC(=O)[C@@H](C(C)C)CC(=O)[C@@H](C)CCC[C@@H](C)CC(=O)[C@@H]1CC(C)=C1[C@H](O)C[C@@]3(C)O[C@@H]3CC[C@@]3(C)O[C@@H]3CC/C(C)=C/[C@H]12
inactive: all assays above

COC(=O)[C@@]12CC(=O)[C@@H](C(C)C)CC(=O)[C@@H](C)CCC[C@@H](C)/C=C3\O[C@@](C)(C[C@@H]31)/C1=C/C[C@](C)(O)[C@H]3CC[C@@](C)(O3)[C@H](O)CC/C(C)=C/[C@H]12
inactive: all assays above

COC(=O)/C1=C/C(=O)C[C@H](C)CCC[C@H](C)C(=O)C[C@H](C(C)C)C(=O)C1
inactive: all assays above

COC(=O)[C@@]12CC(=O)[C@@H](C(C)C)CC(=O)[C@@H](C)CCC[C@@H](C)CC(=O)[C@@H]1CC(C)=C1[C@H](O)C[C@@](C)(Cl)[C@@H](O)CC[C@@]3(C)O[C@@H]3CC/C(C)=C/[C@H]12
inactive: all assays above

COC(=O)[C@@]12CC(=O)[C@@H](C(C)C)CC(=O)[C@@H](C)CCC[C@@H](C)CC(=O)[C@@H]1CC(C)=C1[C@H](O)C[C@](C)(Cl)[C@H]3CC[C@@](C)(O3)[C@H](O)CC/C(C)=C/[C@H]12
inactive: all assays above

C=C1CC[C@@H]2O[C@@H]1CC/C(C)=C/[C@@H]1C(=C(C)C[C@H]3C(=O)C[C@H](C)CCC[C@H](C)C(=O)C[C@H](C(C)C)C(=O)C[C@@]13C(=O)OC)[C@H](O)C[C@@]2(C)O
inactive: all assays above
